The target of series [1] is T1, Signal transduction protein TRAP (Staphylococcus aureus (strain Mu50 / ATCC 700699)) (UniProt Q7A2Q4).
T1 sequence (whole entry): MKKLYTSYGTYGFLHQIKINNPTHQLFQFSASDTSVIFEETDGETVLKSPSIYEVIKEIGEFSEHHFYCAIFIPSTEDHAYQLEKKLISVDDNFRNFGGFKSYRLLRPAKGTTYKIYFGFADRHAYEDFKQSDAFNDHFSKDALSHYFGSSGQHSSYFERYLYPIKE
The experiment in a line: Inhibition of methicillin-resistant Staphylococcus aureus Mu50 TRAP assessed as potentiation of vancomycin-induced antibiofilm activity by measuring vancomycin-mediated reduction in colony forming units at 25 uM pretreated for 4 hrs prior to vancomycin addition measured after 20 hrs (reference value: 30 +/- 14%). Particulars: Staphylococcus aureus subsp. aureus Mu50.

In series [2] the target is T1, Signal transduction protein TRAP (Staphylococcus aureus (strain Mu50 / ATCC 700699)). The experiment in a line: Inhibition of methicillin-resistant Staphylococcus aureus Mu50 TRAP assessed as potentiation of vancomycin-induced antibiofilm activity by measuring vancomycin-mediated reduction in colony forming units at 25 uM cotreated with vancomycin for 24 hrs (reference value: 30 +/- 14%). The following applies: Staphylococcus aureus subsp. aureus Mu50.

In series [3] the test system is Staphylococcus aureus. The experiment in a line: Growth inhibition of methicillin-resistant Staphylococcus aureus Mu50.
The subject of series [4] is Staphylococcus aureus. The series can be described thus: Inhibition of methicillin-resistant Staphylococcus aureus JE2 TRAP assessed as reduction in vancomycin MIC at 100 uM.
Series [5] concerns the target T1, Signal transduction protein TRAP (Staphylococcus aureus (strain Mu50 / ATCC 700699)). The experiment in a line: Inhibition of methicillin-resistant Staphylococcus aureus Mu50 TRAP assessed as reduction in vancomycin MIC at 100 uM. Particulars: Staphylococcus aureus subsp. aureus Mu50.
For series [6], the system named is Staphylococcus aureus. The experiment in a line: Antibiofilm activity against methicillin-resistant Staphylococcus aureus JE2 at 100 uM. It is filed as functional.
Series [7] concerns Staphylococcus aureus. The experiment in a line: Antibiofilm activity against methicillin-resistant Staphylococcus aureus Mu50 at 100 uM. It is filed as functional.
Series [8] deals with Plasma. The experiment in a line: Metabolic stability in human plasma by UPLC-MS/MS analysis. It is filed as ADME, cell-free.
Series [9] can be described thus: Drug metabolism assessed as UGT-mediated compound degradation in human liver microsomes at 5 uM using UDPGA as cofactor by UPLC-MS/MS analysis. It is filed as ADME.
The nature of series [10]: Drug metabolism assessed as CYP450-mediated compound degradation in human liver microsomes at 5 uM using NADPH as cofactor by UPLC-MS/MS analysis. It is filed as ADME. In general terms: Liver microsomes are a subcellular fraction often used to study metabolism.

Active and inactive are the calls of the source. The rule behind the calls is not given here.

As to `Cc1ccc(C(=O)NC[C@]2(O)CO[C@H](CNC(=O)c3ccccc3Cl)[C@H]2O)cc1`, the inhibition (commonly how much of the control response was suppressed) is 48% in series [1] and 58% in series [2]. This compound also returned an MIC in [3] above 500 µM.

Turning to `COc1ccc(C(=O)NC[C@]2(O)CO[C@H](CNC(=O)c3ccccc3Cl)[C@H]2O)cc1`, the values for the inhibition in [1] and in series [2] were 34% and 43%, respectively. The compound also returned an MIC in series [3] above 500 µM.

`CC(=O)NC[C@]1(O)CO[C@H](CNC(=O)c2ccccc2Cl)[C@H]1O`: the inhibition in [1] was 70%; in series [2], 82%. The same compound came in with an MIC in [3] above 500 µM.

On to `O=C(CCc1ccccc1)NC[C@]1(O)CO[C@H](CNC(=O)c2ccccc2Cl)[C@H]1O`, for which the inhibition was found to be 35% in series [1] and 18% in [2]. The MIC in series [3] was above 500 µM.

In the case of `O=C(NC[C@]1(O)CO[C@H](CNC(=O)c2ccccc2Cl)[C@H]1O)c1ccccc1F`, the inhibition worked out at 38% in [1] and 56% in series [2]. Also, the MIC in [3] was above 500 µM.

Take `O=C(NC[C@]1(O)CO[C@H](CN2C(=O)c3ccccc3C2=O)[C@H]1O)c1ccnnc1`: the inhibition entry in [4] and in [5] was “inactive” in each case. Moreover, the result in series [6] and in [7] was inactive.

As to `O=C(NC[C@]1(O)CO[C@H](CNC(=O)c2ccccc2Cl)[C@H]1O)c1ccoc1`, the inhibition in series [1] came to 58%; in [2] it was 50%. Also, the MIC in series [3] is above 500 µM.

As to `O=C(NC[C@H]1OC[C@H](O)[C@@H]1O)c1ccccc1Cl`, the inhibition in [1] was 80%; in [2] it was 81%. Also, the MIC in series [3] was above 500 µM.

Turning to `O=C(NC[C@]1(O)CO[C@H](CNC(=O)c2ccccc2Cl)[C@H]1O)c1cncnc1`, the inhibition in series [1] stood at 36%; in series [2], 35%. The same compound registered an MIC in series [3] above 500 µM.

Take `O=C(NC[C@H]1OC[C@@](O)(CNC(=O)C2CCCCC2)[C@@H]1O)c1ccccc1Cl`: the figures for the inhibition in [1] and in [2] were 85% and 55%, respectively. In series [3], this compound came in with an MIC above 500 µM.

`O=C(OC[C@H]1OC(O)[C@@](O)(COC(=O)c2cc(O)c(O)c(O)c2)[C@@H]1O)c1cc(O)c(O)c(O)c1` (some centres undefined) [HAMAMELITANNIN]: the inhibition is 35% in series [1] and 31% in [2]. Further, the MIC in series [3] is above 500 µM.

As for `O=C(NC[C@H]1OC[C@@](O)(CNCc2ccccc2)[C@@H]1O)c1ccccc1Cl`, the figures for the inhibition in [1] and in series [2] were 94% and 89%, respectively. For the same compound, the MIC in series [3] is above 500 µM.

Take `O=C(NC[C@]1(O)CO[C@H](CNC(=O)c2ccccc2Cl)[C@H]1O)Nc1ccccc1`: the inhibition in series [1] was determined as 67%; in series [2] it was 58%. This compound displayed an MIC in series [3] above 500 µM.

In the case of `O=C(NC[C@]1(O)CO[C@H](CN2C(=O)c3ccccc3C2=O)[C@H]1O)c1ccccc1Cl`, the Stability entry is reported as “Stable” in series [8], “Stable” in series [9] and “Unstable” in series [10]. The inhibition result in series [4] and in [5] was “inactive” throughout. Further, the outcome in [6] and in series [7] was inactive.

In the case of `O=C(NC[C@H]1OC[C@@](O)(CNS(=O)(=O)c2ccccc2)[C@@H]1O)c1ccccc1Cl`, the inhibition in series [1] came to 65%; in series [2] it was 44%. This compound registered an MIC in series [3] above 500 µM.

On to `CN[C@H](CC(C)C)C(=O)N[C@H]1C(=O)N[C@@H](CC(N)=O)C(=O)N[C@H]2C(=O)N[C@H]3C(=O)N[C@H](C(=O)N[C@H](C(=O)O)c4cc(O)cc(O)c4-c4cc3ccc4O)[C@H](O)c3ccc(c(Cl)c3)Oc3cc2cc(c3O[C@@H]2O[C@H](CO)[C@@H](O)[C@H](O)[C@H]2O[C@H]2C[C@](C)(N)[C@H](O)[C@H](C)O2)Oc2ccc(cc2Cl)[C@H]1O`, for which the inhibition in series [1] and in series [2] was 30% throughout.

Regarding `[N-]=[N+]=NC[C@]1(O)CO[C@H](CNC(=O)c2ccccc2Cl)[C@H]1O`, the inhibition in series [1] is 87%; in series [2], 88%. For the same compound, in series [3], the MIC is above 500 µM.

In the case of `O=C(NC[C@]1(O)CO[C@H](CNC(=O)c2ccccc2Cl)[C@H]1O)c1ccc(Cl)cc1`, the inhibition is 39% in series [1] and 43% in series [2]. In series [3], this compound had an MIC above 500 µM.

In the case of `O=C(NC[C@]1(O)CO[C@H](CNC(=O)c2ccccc2Cl)[C@H]1O)c1ccccc1`, the inhibition in [1] turned out to be 85%; in series [2], 80%. The compound also registered an MIC in series [3] above 500 µM.

`O=C(NC[C@H]1OC[C@@](O)(CN2Cc3ccccc3C2=O)[C@@H]1O)c1ccccc1Cl`: the inhibition in [1] was 92%; in series [2], 73%. Further, the MIC in series [3] is above 500 µM.

Values taken from ChEMBL document CHEMBL4041547, “Novel Potentiators for Vancomycin in the Treatment of Biofilm-Related MRSA Infections via a Mix and Match Approach” (ACS Med Chem Lett, 2017).
